Results: patent US12673950B2, “Spiros and related analogs for inhibiting YAP/TAZ-TEAD” (THE KATHOLIEKE UNIVERSITEIT LEUVEN, priority 2021, dated 2026)

Legend:
Format in all cases: cell-based
[1] = system: YAP/TAZ-TEAD transcription; experiment: Reporter gene assay for measuring the inhibition of YAP/TAZ-TEAD transcription (TEAD-responsive element luciferase reporter in Hek293T cells); conditions: Hek293T cells transfected with TEAD-responsive luciferase reporter, 24 hours incubation
Method: Hek293T cells are cultured in DMEM supplemented with 10% fetal bovine serum, Sodium pyruvate, Sodium bicarbonate, L-glutamine. The cells are harvested and transiently transfected with TEAD-responsive element luciferase reporter. Transfected cells are plated in 384-wells plate containing pre-diluted compounds. After 24 hours incubation at 37° C./5% CO2, assay plates were cooled down to RT and levelled to an equal volume per well, prior to the addition of 25 uL luciferase substrate SteadyLite (Perkin Elmer)/well. The plate was shaken for 10 min at 600 rpm, centrifuged for 1 min at 500 rpm and measured with an Envision reader (PerkinElmer). The amount of relative light units produced by the TEAD reporter is used to calculated percent of inhibition.
The percent of reporter inhibition was calculated in the presence of a positive control inhibitor (100% inhibition) versus a condition with the presence of the vehicle basal activity of the reporter (0% inhibition). The ability of a test compound to inhibit this activity was determined as: Percentage inhibition=[1−((RLU determined in the presence of vehicle−RLU determined for sample with test compound present) divided by (RLU determined in the presence of vehicle−RLU determined for sample with positive control inhibitor))]*100
The activities of example compounds tested are depicted in Table 3. The activity ranges A, B and C refer to IC50 values in the reporter gene assay as follows: “A”: IC50<1 μM; “B”: 1 μM≤IC50≤20 μM and “C”: IC50>20 μM; NT=not tested.

NCI-H226 = experiment: Mesothelioma cell line proliferation assay (ATPlite), NCI-H226; conditions: Homo sapiens, 144 h; NCI-H226 mesothelioma cells, 6 days incubation, ATPlite cell viability
Method: (§1) Mesothelioma cell lines, NCI-H226 and NCI-H2052 (all sourced from the ATCC cell culture collection) are plated in 96-well plates (Corning® 96 Well White Polystyrene Microplate clear flat bottom, white polystyrene (TC-Treated)), at 1500 cells/well in full medium (RPMI 1640 ATCC modification with L-glutamine, HEPES, Phenol Red, Sodium Pyruvate, High glucose, Low sodium bicarbonate and 10% fetal bovine serum). Cells are incubated overnight at 37° C. in an incubator with 5% CO2. Then compounds, dissolved in DMSO, are added in dose-response. Cells are incubated with compound dilutions for another 6 days at 37° C. in an incubator with 5% CO2. Cell viability is quantitated using the ATPlite kit (Perkin-Elmer) and the luminescence is read-out using an Envision instrument (Perkin-Elmer). The amount of relative light units produced using the ATPlite kit is used to calculated percent of inhibition.
(§2) The activities of some example compounds are depicted in Table 4. The activity ranges A, B and C refer to EC50 values in the mesothelioma cell line proliferation assay as described as follows: “A”: EC50<1 μM; “B”: 1 μM≤EC50≤10 μM and “C”: EC50>10 μM; NT: not tested.

NCI-H2052 = experiment: Mesothelioma cell line proliferation assay (ATPlite), NCI-H2052; conditions: Homo sapiens, 144 h; NCI-H2052 mesothelioma cells, 6 days incubation, ATPlite cell viability
Method: as §1, §2

**Q.** Which results are given for `C=CC(=O)N1CCC2(Cc3ccccc3N(c3ccc(C(F)(F)F)cc3)C2)C1` (racemic) [Cpd. No. 003, 1-(1′-(4-(trifluoromethyl)phenyl)-1′,4′-dihydro-2′H-spiro[pyrrolidine-3,3′-quinolin]-1-yl)prop-2-en-1-one]?
**A.** IC50 ([1]; Homo sapiens, HEK-293T, 24 h): < 1000 nM; EC50 (NCI-H226): < 1000 nM; EC50 (NCI-H2052): < 1000 nM

**Q.** `C=CC(=O)N1CCC2(Cc3ccccc3N(c3ccc(C(F)(F)F)cc3)C2)C1` (single isomer, unassigned) [Cpd. No. 003-En1, (R)- or (S)-1-(1′-(4-(trifluoromethyl)phenyl)-1′,4′-dihydro-2′H-spiro[pyrrolidine-3,3′-quinolin]-1-yl)prop-2-en-1-one] was tested. Which IC50 [1] did it give?
**A.** < 1000 nM

**Q.** Which results are given for `C=CC(=O)N1CCC2(Cc3ccccc3N(c3ccc(C(F)(F)F)cc3)C2)C1` (single isomer, unassigned) [Cpd. No. 003-En2, (R)- or (S)-1-(1′-(4-(trifluoromethyl)phenyl)-1′,4′-dihydro-2′H-spiro[pyrrolidine-3,3′-quinolin]-1-yl)prop-2-en-1-one]?
**A.** IC50 ([1]; Homo sapiens, HEK-293T, 24 h): < 1000 nM; EC50 (NCI-H226): < 1000 nM; EC50 (NCI-H2052): < 1000 nM

**Q.** `CCC(=O)N1CCC2(Cc3ccccc3N(c3ccc(C(F)(F)F)cc3)C2)C1` (single isomer, unassigned) [Cpd. No. 004-En1, (R)- or (S)-1-(1′-(4-(trifluoromethyl)phenyl)-1′,4′-dihydro-2′H-spiro[pyrrolidine-3,3′-quinolin]-1-yl)propan-1-one] was tested. Which IC50 [1] did it give?
**A.** > 20000 nM

**Q.** `CCC(=O)N1CCC2(Cc3ccccc3N(c3ccc(C(F)(F)F)cc3)C2)C1` (single isomer, unassigned) [Cpd. No. 004-En2, (R)- or (S)-1-(1′-(4-(trifluoromethyl)phenyl)-1′,4′-dihydro-2′H-spiro[pyrrolidine-3,3′-quinolin]-1-yl)propan-1-one] was tested. Which IC50 [1] did it give?
**A.** 1000 to 20000 nM

**Q.** How did the IC50 [1] turn out when `CS(=O)(=O)N1CCC2(Cc3ccccc3N(c3ccc(C(F)(F)F)cc3)C2)C1` (single isomer, unassigned) [Cpd. No. 005-En1, (R)- or (S)-1-(methylsulfonyl)-1′-(4-(trifluoromethyl)phenyl)-1′,4′-dihydro-2′H-spiro[pyrrolidine-3,3′-quinoline]] was run?
**A.** > 20000 nM

**Q.** Which results are given for `CS(=O)(=O)N1CCC2(Cc3ccccc3N(c3ccc(C(F)(F)F)cc3)C2)C1` (single isomer, unassigned) [Cpd. No. 005-En2, (R)- or (S)-1-(methylsulfonyl)-1′-(4-(trifluoromethyl)phenyl)-1′,4′-dihydro-2′H-spiro[pyrrolidine-3,3′-quinoline]]?
**A.** IC50 [1]: < 1000 nM; EC50 (NCI-H226): < 1000 nM; EC50 (NCI-H2052): < 1000 nM

**Q.** `C=CC(=O)N1CCC2(CC1)Cc1ccccc1N(c1ccc(C(F)(F)F)cc1)C2=O` [Cpd. No. 001, 1-acryloyl-1′-(4-(trifluoromethyl)phenyl)-1′,4′-dihydro-2′H-spiro[piperidine-4,3′-quinolin]-2′-one] was tested. Which IC50 ([1]; Homo sapiens, HEK-293T, 24 h) did it give?
**A.** < 1000 nM

**Q.** For `C=CC(=O)N1CCC2(CC1)Cc1ccccc1N(c1ccc(C(F)(F)F)cc1)C2` [Cpd. No. 002, 1-(1′-(4-(trifluoromethyl)phenyl)-1′,4′-dihydro-2′H-spiro[piperidine-4,3′-quinolin]-1-yl)prop-2-en-1-one], which IC50 ([1]; Homo sapiens, HEK-293T, 24 h) is on record?
**A.** < 1000 nM

**Q.** And the EC50 (NCI-H226)?
**A.** < 1000 nM

**Q.** What about the EC50 (NCI-H2052) of the same molecule?
**A.** 1000 to 10000 nM

**Q.** For `C=CC(=O)N1CC2(Cc3ccccc3N(c3ccc(C(F)(F)F)cc3)C2)C1` [Cpd. No. 006, 1-(1′-(4-(trifluoromethyl)phenyl)-1′,4′-dihydro-2′H-spiro[azetidine-3,3′-quinolin]-1-yl)prop-2-en-1-one], which IC50 ([1]; Homo sapiens, HEK-293T, 24 h) is on record?
**A.** < 1000 nM

**Q.** And the EC50 (NCI-H226)?
**A.** < 1000 nM

**Q.** And the EC50 (NCI-H2052)?
**A.** < 1000 nM

**Q.** Which IC50 ([1]; Homo sapiens, HEK-293T, 24 h) does the source give for `CCC(=O)N1CC2(Cc3ccccc3N(c3ccc(C(F)(F)F)cc3)C2)C1` [Cpd. No. 007, 1-(1′-(4-(trifluoromethyl)phenyl)-1′,4′-dihydro-2′H-spiro[azetidine-3,3′-quinolin]-1-yl)propan-1-one] here?
**A.** > 20000 nM

**Q.** `CC(NC(=O)N1CCC2(Cc3ccccc3N(c3ccc(C(F)(F)F)cc3)C2)C1)c1ccccn1` (stereo not shown) [Cpd. No. 008, N-[1-(2-pyridyl)ethyl]-1-[4-(trifluoromethyl)phenyl]spiro[2,4-dihydroquinoline-3,3′-pyrrolidine]-1′-carboxamide] was tested. Which IC50 ([1]; Homo sapiens, HEK-293T, 24 h) did it give?
**A.** 1000 to 20000 nM

**Q.** Which IC50 ([1]; Homo sapiens, HEK-293T, 24 h) does the source give for `C=CC(=O)N1CCC2(Cc3cc(C(F)(F)F)ccc3N(c3ccc(C(F)(F)F)cc3)C2)C1` (stereo not shown) [Cpd. No. 009, 1-[6-(trifluoromethyl)-1-[4-(trifluoromethyl)phenyl]spiro[2,4-dihydroquinoline-3,3′-pyrrolidine]-1′-yl]prop-2-en-1-one] here?
**A.** < 1000 nM

**Q.** `CC(=O)N1CCC2(Cc3cc(C(F)(F)F)ccc3N(c3ccc(C(F)(F)F)cc3)C2)C1` (stereo not shown) [Cpd. No. 010, 1-[6-(trifluoromethyl)-1-[4-(trifluoromethyl)phenyl]spiro[2,4-dihydroquinoline-3,3′-pyrrolidine]-1′-yl]ethanone] was tested. Which IC50 ([1]; Homo sapiens, HEK-293T, 24 h) did it give?
**A.** > 20000 nM

**Q.** Which IC50 ([1]; Homo sapiens, HEK-293T, 24 h) does the source give for `CS(=O)(=O)N1CCC2(Cc3cc(C(F)(F)F)ccc3N(c3ccc(C(F)(F)F)cc3)C2)C1` (stereo not shown) [Cpd. No. 011, 1′-methylsulfonyl-6-(trifluoromethyl)-1-[4-(trifluoromethyl)phenyl]spiro[2,4-dihydroquinoline-3,3′-pyrrolidine]] here?
**A.** < 1000 nM
